Results taken from patent US20180228811A1, “GDNF INDUCTION FOR THE TREATMENT OF RETINAL DISORDERS” (THE SCHEPENS EYE RESEARCH INSTITUTE, INC., priority 2014, published 2018).
Several values for one entry are separate records, joined by “and”; a condition that tells them apart may be missing. Equal values may be shown once. Entries after “also recorded” stand apart in the source; their conditions may differ.

Key:
GDNF mRNA = GDNF mRNA time-course in ARPE19 cells (qPCR); type: cell-based, human; settings: ARPE19, 100 nM Compound I, normalized by GAPDH and ßActin
Description: GDNF induction […] was assessed using three retinal-specific cell systems: ARPE19, as a model for human retinal pigment epithelium; human retinal progenitor cells (hRPC), as a substitute for human retinal neurons/glia; and mouse eyecups, differentiated from induced pluripotent stem cells. ARPE19 cells are described in Dunn et al., Exp. Eye Res. 62: 155-169, 1996. To study GDNF induction in a human retinal pigment epithelium cell line, ARPE19, thawed ARPE19 cells (passage 33, ATCC) were plated on fibronectin (Akron)-coated plates (Nunc) in stimulation medium at a density of 10 k cells/sq.cm. The flasks were incubated at standard conditions: 37° C., 5% CO2, 100% humidity. Cells were plated 24 hours prior to Compound I treatment and were grown in Ultraculture medium (Lonza), supplemented with 1×MEM NEAA (Gibco), 1× L-glutamine (Gibco), 1× Antibiotic/antimycotic (Gibco), 2 ng/ml bFGF (Peprotech), 1 ng/ml EGF (Peprotech). For qPCR analysis, the experiments were performed in 35 mm Petri dishes in 2 ml of medium with Compound I concentration of 100 nM (DMSO-based solution). Total mRNA was isolated at 0, 15, 30, 60, 120, 240 minutes post stimulation. For protein expression determination by ELISA, the experiments were performed in 96 well plates in 100 ul of medium with each condition (concentrations ranging from 0 to 10 uM) reproduced in 3 wells. […]

GDNF = GDNF induction by Compound I aqueous solution in wild-type mice; type: in vivo, mouse; settings: 3 hours; for GDNF mRNA induction compared to vehicle-treated control: wild type mice; for GDNF protein upregulation compared to untreated control: wildtype mice, vehicle 1.5 fold
Description: All animal procedures were performed under general (intraperitoneal ketamine/xylazine) and topical (proparacaine drops) anesthesia. Tropicamide was applied for pupil dilation. After injection, the eye was treated with antibiotic ointment (Bacitracin-Neomycin-Polymyxin). The same procedures were applied to control eyes.
To study GDNF induction by Compound I aqueous solution, 1 ul of 10 uM (n=5) or 100 uM (n=5) water-based Compound I or 1 ul of Vehicle (n=5) was administered intravitreally using beveled glass needle, connected to a Hamilton syringe through polyethylene tubing. During the injection, corneal paracenthesis was performed to reduce intraocular pressure. Compound I was injected into 4-week old wildtype (C57/Bl6, Jackson labs) and rhodopsin knockout (Humphries et al., Nat. Genet. 15, 216-219 (1997)).
Three hours after the injection animals were euthanized using CO2, then the death was confirmed by cervical dislocation. The treated and untreated eyes were enucleated and placed in 250 ul of chilled RNAlater buffer (Qiagen) and stored at 4° C. Later, eyes were excised and total neural retina with retinal pigment epithelium were collected into 400 ul of Lysis buffer (Qiagen RNeasy kit) with 5 mM beta-mercaptoethanol. Total RNA was isolated using RNeasy kit (Qiagen) and eluted with 100 ul of Ultrapure water (Life technologies). All flow through from RNA isolation (˜2.4 ml) was collected and mixed with 10 ml of ice-cold (−20° C.) acetone for protein precipitation. The protein was precipitated at −20° C. for 30 minutes, then pelleted at 3500 rpm for 20 min. Pellets were washed once with 100% ethanol, then reconstituted with 300 ul of RIPA buffer with 0.2 mM 4-benzenesulfonyl fluoride hydrochloride (Tocris). mRNA and protein expression were assessed by qPCR and Western Blot and normalized to GAPDH and βActin. The statistical analysis was performed using a T-test (p<0.05) with Bonferroni post-hoc test.

[1] = Pharmacokinetic studies of Compound I sustained release formulation (suspension) in wild-type mice; type: in vivo, mouse; settings: for Compound I content in the collected vitreoretinal samples / Compound I concentration in the vitreoretinal sample: 2 ul of 60 mg/ml suspension intravitreally; for total Compound I content per eye: suspension intravitreally
Description: To profile pharmacokinetics of Compound I after single intravitreal injection, 2 ul of Compound I suspension (60 mg/ml) were administered intravitreally to 3 week old wild-type (C57/Bl6) mice in the same way as described above for the solution. A beveled glass needle connected to a Hamilton syringe through polyethylene tubing was used. During the injection, corneal paracenthesis was performed to reduce intraocular pressure.
For enucleation animals were euthanized at several timepoints after injection: 1 hour (n=5), 1 day (n=3), 2 days (n=3), 7 days (n=3) and 14 days (n=3). The eyes were enucleated and placed in chilled phosphate-buffered saline and kept on ice. The eyes were dissected within 30 minutes post-enucleation: total retina and vitreous were collected into pre-weighed tubes, weighted and snap frozen. For Compound I content in the eye analysis retina and vitreous humor samples were diluted in 0.1% formic acid in 90:10 (v:v) acetonitrile:water before being analyzed for Compound I using an analytical method based on protein precipitation, followed by HPLC/MS/MS analysis. Using a 25 μL aliquot of sample, the lower limit of quantification (LLQ) for Compound I was 1.00 ng/mL. The computer systems that were used on this study to acquire and quantify data included Analyst Version 1.6.1 and SMS2000 version 2.3. The results were analyzed by ANOVA (p<0.05).

photoreceptors = assay: Photoreceptor rescue by Compound I suspension in rhodopsin knockout mice (H&E cell count); type: in vivo, mouse; settings: rho-/- mice
Description: To study photoreceptor rescue by Compound I suspension (60 mg/ml), 2 ul of suspension (n=5) or Vehicle (n=5) were administered intravitreally to 4-week old rhodopsin knockout mice using a beveled glass needle, connected to a Hamilton syringe through polyethylene tubing. During the injection, corneal paracenthesis was performed to reduce intraocular pressure. 10 weeks after the injection, eyes were enucleated and fixed in Davidson solution for histological processing: paraffin embedding and sectioning. Six micron thick sections were cut in the area close to optic nerve head (ONH) and stained with hematoxylin-eosin (H&E) or processed for immunohistochemical analysis (IHC). H&E-stained sections were imaged (Olympus imaging system DP72) and total photoreceptor number was estimated based on the nuclei count in the outer nuclear layer (ONL). Cells were counted in each 100 um retina span starting from optic nerve head on three sections for each eye (five eyes per group). Total photoreceptor number per section was also calculated.

[2] = wt mice, 14 days post injection

time drug may be present according to modeling ([1]; single 2 ul intravitreal injection of suspension, modeling): up to 4 weeks | Compound I content in the collected vitreoretinal samples ([1]; wt mice, 1 hour post-injection): 21 ug per milligram of tissue | Compound I concentration in the vitreoretinal sample ([1]; wt mice, 14 days): 5 mg/g tissue | Compound I content in the collected vitreoretinal samples [1, 2]: 5 ug per milligram of tissue | Compound I concentration in the vitreoretinal sample ([1]; wt mice, start of time course (1 hour)): 20 mg/g tissue | time the compound remained in the eye after single intravitreal injection ([1]; wt mice, single 2 ul injection of suspension): at least 2 weeks | total Compound I content per eye ([1]; wt mice, 1 hour post-injection): 80 µg | total Compound I content per eye [1, 2]: 28 µg
Structure (SMILES): COc1cc2c(cc1S(=O)(=O)c1ccc(OCc3ccc(Cl)cc3)cc1)CCN(C)CC2 [Compound I, 7-[4-(4-chloro-benzyloxy)-benzenesulfonyl]-8-methoxy-3-methyl-2,3,4,5-tetrahydro-1H-3-benzazepine]
time of GDNF mRNA peak after stimulation (GDNF mRNA): 30 min | GDNF mRNA induction compared to vehicle-treated control (GDNF; 1 ul of 10 uM solution intravitreally): 1.3 fold | GDNF mRNA induction compared to vehicle-treated control (GDNF; 1 ul of 100 uM solution intravitreally): 1.9 fold | GDNF protein upregulation compared to untreated control (GDNF; 10 uM solution intravitreally): 2.3 fold | GDNF protein upregulation compared to untreated control (GDNF; 100 uM solution intravitreally): 2.3 fold | increase in photoreceptor cell number pan-retinally compared to uninjected and vehicle (photoreceptors; 2 ul of 60 mg/ml suspension intravitreally at 4 weeks of age, 10 weeks after injection): 2 fold and 2.1 fold | total photoreceptor cells per section (photoreceptors; suspension, 10 weeks after injection, uninjected 516, vehicle 508): 1210 cells per section | retinal pigment epithelium, inner nuclear and ganglion cell layers, histology (photoreceptors; suspension, 10 weeks after the treatment): no changes in the retinal pigment epithelium, inner nuclear or ganglion cell layers | increase in photoreceptor cell number in the area close to the optic nerve head (ONH) (photoreceptors; suspension, 200 micron area): 1.5 fold | outer nuclear layer (ONL), histology (photoreceptors; suspension, compared to vehicle-treated and untreated eyes): preserved; also recorded: significant increase in ONL thickness | photoreceptors per 200 um close to the ONH (photoreceptors; suspension, non-treated 46, vehicle control 39): 63 photoreceptors per 200 um
